Target: T1, TLR7 (Homo sapiens, UniProt Q9NYK1)
T1 sequence (Q9NYK1 27-1049): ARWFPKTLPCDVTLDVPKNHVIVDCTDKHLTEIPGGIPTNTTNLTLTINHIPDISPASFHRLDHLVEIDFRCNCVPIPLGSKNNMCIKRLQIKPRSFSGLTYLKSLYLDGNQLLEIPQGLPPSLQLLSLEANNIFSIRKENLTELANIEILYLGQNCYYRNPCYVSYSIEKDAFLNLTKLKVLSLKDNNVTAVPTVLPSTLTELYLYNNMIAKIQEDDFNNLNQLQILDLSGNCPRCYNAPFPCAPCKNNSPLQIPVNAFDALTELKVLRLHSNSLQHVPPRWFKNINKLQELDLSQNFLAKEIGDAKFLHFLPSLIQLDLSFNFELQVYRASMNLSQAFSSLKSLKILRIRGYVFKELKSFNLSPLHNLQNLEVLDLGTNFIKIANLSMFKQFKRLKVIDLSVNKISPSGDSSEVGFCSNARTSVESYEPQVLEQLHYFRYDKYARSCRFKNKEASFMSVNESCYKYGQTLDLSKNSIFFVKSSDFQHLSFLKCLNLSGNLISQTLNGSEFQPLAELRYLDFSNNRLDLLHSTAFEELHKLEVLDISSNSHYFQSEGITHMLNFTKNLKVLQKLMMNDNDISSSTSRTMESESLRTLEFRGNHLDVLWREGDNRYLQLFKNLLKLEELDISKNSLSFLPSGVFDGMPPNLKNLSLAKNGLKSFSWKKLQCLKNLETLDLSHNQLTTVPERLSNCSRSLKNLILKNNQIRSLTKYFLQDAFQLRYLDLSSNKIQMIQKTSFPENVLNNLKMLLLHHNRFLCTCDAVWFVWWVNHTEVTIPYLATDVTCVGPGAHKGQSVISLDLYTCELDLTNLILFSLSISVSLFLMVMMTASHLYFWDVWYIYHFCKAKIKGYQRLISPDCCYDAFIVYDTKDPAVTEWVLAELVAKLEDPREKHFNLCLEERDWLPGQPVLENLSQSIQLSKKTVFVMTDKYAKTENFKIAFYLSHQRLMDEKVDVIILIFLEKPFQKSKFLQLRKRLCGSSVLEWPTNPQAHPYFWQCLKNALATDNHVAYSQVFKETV
Test: TLR7 agonist potency compared with Aldara
Conditions: more potent than Aldara

Cc1ccc2c(c1)nc(N)c1ncc(CCc3ccc(OCCC(C)C)cc3C)cc12 [compound of formula (II)]
TLR7 agonist potency relative to Aldara: about 100 times

— patent US20190021989A1, “GALENIC FORMULATION COMPRISING A TOPICAL DRUG” (NOVARTIS AG, priority 2015, published 2019)
